# Results published in patent US10947196B2, “Beta adrenergic agonist and methods of using the same” (CURASEN THERAPEUTICS, INC., priority 2019, dated 2021).
# Molecular target: β2 adrenergic receptor (Homo sapiens (Human), UniProt P07550)
# Assay: cAMP Gs dynamic HTRF assay, β2 expressing CHO cells
# Type: cell-based
# Conditions: B2-AR; CHO-K1 (HitHunter); read-out: Average pEC50 [Receptor subtype: B2-AR; Cell type: CHO-K1 (HitHunter)] (converted)
# Procedure, shortened: (§1)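 Intracellular cAMP quantified by Eu-donor/d2-acceptor HTRF after 30 min compound exposure at 37° C in stimulation buffer with IBMX. Concentrations ran 10 μM top, 5-fold steps, 10 points. Cell lines: 1321N1 astrocytoma and CHO expressing β1 or β2; EC50 via four-parameter fit, relative efficacy against isoproterenol.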
# β2 adrenergic receptor, sequence (P07550 whole entry, species assumed): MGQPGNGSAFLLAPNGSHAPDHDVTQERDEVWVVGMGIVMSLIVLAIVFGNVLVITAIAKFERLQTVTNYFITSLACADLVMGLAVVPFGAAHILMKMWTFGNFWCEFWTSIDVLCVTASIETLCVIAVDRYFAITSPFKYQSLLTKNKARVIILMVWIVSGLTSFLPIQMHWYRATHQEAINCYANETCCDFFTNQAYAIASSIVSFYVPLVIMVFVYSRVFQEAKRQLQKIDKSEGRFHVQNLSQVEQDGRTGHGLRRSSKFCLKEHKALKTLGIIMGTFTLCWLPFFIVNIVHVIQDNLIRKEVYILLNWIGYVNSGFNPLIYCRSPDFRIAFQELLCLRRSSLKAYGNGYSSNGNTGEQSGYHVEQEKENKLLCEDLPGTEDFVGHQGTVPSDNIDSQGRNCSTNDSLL
row,Structure (SMILES),EC50 [nM]
1,CC(C)(C)NC[C@H](O)c1cccc(C(C)(C)C)n1 [Compound 03-209],< 10
2,Cn1cc(-c2cccc([C@@H](O)CNC(C)(C)C)n2)cn1 [Compound 03-215],< 10
3,CC(C)(C)NC[C@@H](O)c1cccc(-n2ccnc2)n1 [Compound 03-228],< 10
4,CC(C)(C)NC[C@@H](O)c1cccc(Cl)n1 [Compound 03-230],10 to 100
5,CC(C)(C)NC[C@H](O)c1cccc(C2CCCC2)n1 [Compound 03-237],< 10
6,C#Cc1cccc([C@H](O)CNC(C)(C)C)n1 [Compound 03-238],10 to 100
7,C=CCc1ncccc1[C@@H](O)CNC(C)(C)C [Compound 03-243],10 to 100
8,Cc1ccc([C@@H](O)CNC(C)(C)C)cn1 [Compound 03-248],10 to 100
9,COc1ccc(C[C@@H](C)NC[C@H](O)c2ccc(C)nc2)cc1 [Compound 03-249],< 10
10,COc1ccc(C[C@@H](C)NC[C@H](O)c2cccc(OC(F)(F)F)n2)cc1 [Compound 03-257],< 10
11,Cc1ncc(Cl)cc1[C@@H](O)CNC(C)(C)C [Compound 03-267],10 to 100
12,CC(C)(C)NC[C@H](O)c1cccc(NC2CC(F)C2)n1 (stereo partly drawn) [Compound 03-272],< 10

# Molecular target: β2 adrenergic receptors in human astrocytoma cells (1321N1) (Homo sapiens (Human), UniProt P07550)
# Assay: cAMP HTRF assay in human astrocytoma cells (1321N1)
# Type: cell-based
# Conditions: Endogenous receptor; 1321N1 cells; read-out: Average pEC50 [Receptor subtype: Endogenous; Cell type: 1321N1] (converted)
# Experimental: cAMP homogeneous time-resolved fluorescence (HTRF). Compound efficacy was determined using the cAMP Gs dynamic HTRF assay (Cisbio, catalog #62AM4PEC) largely following the manufacturer's instructions, also detailed below.
# Compound preparation. […] Standard serial dilution curves were 10-point, 5-fold dilutions starting from a highest concentration of 10 μM. […] Assay plates were centrifuged at 500×g for 10 seconds. Compounds and IBMX were prepared at 2× final dose to compensate for addition of cells.
# Cell preparation. 1× stimulation buffer, washing PBS (Dulbecco's phosphate-buffered saline, −Mg −Ca; Caisson Labs, catalog #PBL01), assay PBS (Dulbecco's phosphate-buffered saline, +Mg, +Ca; Caisson Labs, catalog #PBL02) and Versene (0.02% EDTA disodium salt solution in PBS without calcium or magnesium; Caisson Labs, catalog #EDL01) were pre-warmed to 37° C. Cells expressing beta-adrenergic receptor were washed in washing PBS to remove growth medium and then released from the surface by incubating with Versene for 5-10 minutes at 37° C. Cells were harvested using assay PBS, counted manually by hemocytometer or by an automated cell counter, pelleted by centrifugation (200×g, 5 minutes) and resuspended in 37° C. 1× stimulation buffer to a final density of 1.5×10^6 cells/mL. 5 μL of the suspended cell solution (7500 cell total) were added to all wells of the 384 well assay plate, the assay plate was covered with an Axygen® plate seal (Corning PCR-SP) and incubated in a humidified 37° C. environment supplemented with 5% CO2 for 30 minutes.
# HTRF reagent addition, reading and data analysis. After 30 minutes of cell stimulation with test compound, the assay plates were centrifuged at 500×g for 10 seconds, and incubation was stopped with the addition of 5 μL cAMP-D2 acceptor, diluted 1:21 in detection and lysis buffer 2 (Cisbio 62CL2FDF) was added to all cells. Subsequently, 5 μL Anti-cAMP-Eu Donor, diluted 1:21 in detection and lysis buffer 2, was added to cells. Plates were sealed and reactions gently ‘vortexed’ at 900 rpm on a Heidolph Titramax 1000 for at least 30 minutes at room temperature. Plates were centrifuged again at 500×g for 10 seconds, and HTRF was measured using a Tecan Spark plate reader at 50 flashes per well. […] Potency estimates (EC50) were derived from the four-parameter nonlinear regression of the concentration-effect curve and an estimate of relative efficacy was determined by comparing the magnitude of the test compound HTRF signal window (min−max dose) with the signal window of the full agonist control, isoproterenol.
# β2 adrenergic receptors in human astrocytoma cells (1321N1), sequence (P07550 whole entry): as the sequence (P07550 whole entry, species assumed) above
row,Structure (SMILES),EC50 [nM]
1,CC(C)(C)NC[C@H](O)c1cccc(C(C)(C)C)n1 [Compound 03-209],< 10
2,Cn1cc(-c2cccc([C@@H](O)CNC(C)(C)C)n2)cn1 [Compound 03-215],10 to 100
3,CC(C)(C)NC[C@@H](O)c1cccc(-n2ccnc2)n1 [Compound 03-228],< 10
4,CC(C)(C)NC[C@@H](O)c1cccc(Cl)n1 [Compound 03-230],100 to 1000
5,CC(C)(C)NC[C@H](O)c1cccc(C2CCCC2)n1 [Compound 03-237],< 10
6,C#Cc1cccc([C@H](O)CNC(C)(C)C)n1 [Compound 03-238],100 to 1000
7,C=CCc1ncccc1[C@@H](O)CNC(C)(C)C [Compound 03-243],100 to 1000
8,Cc1ccc([C@@H](O)CNC(C)(C)C)cn1 [Compound 03-248],10 to 100
9,COc1ccc(C[C@@H](C)NC[C@H](O)c2ccc(C)nc2)cc1 [Compound 03-249],< 10
10,COc1ccc(C[C@@H](C)NC[C@H](O)c2cccc(OC(F)(F)F)n2)cc1 [Compound 03-257],< 10
11,Cc1ncc(Cl)cc1[C@@H](O)CNC(C)(C)C [Compound 03-267],100 to 1000
12,CC(C)(C)NC[C@H](O)c1cccc(NC2CC(F)C2)n1 (stereo partly drawn) [Compound 03-272],< 10

# Molecular target: β1-adrenergic receptor (Homo sapiens (Human), UniProt P08588)
# Assay: cAMP Gs dynamic HTRF assay, β1 expressing CHO cells
# Type: cell-based
# Conditions: B1-AR; CHO-K1 (HitHunter); read-out: Average pEC50 [Receptor subtype: B1-AR; Cell type: CHO-K1 (HitHunter)] (converted)
# Procedure, shortened: as §1
# β1-adrenergic receptor, sequence (P08588 whole entry, species assumed): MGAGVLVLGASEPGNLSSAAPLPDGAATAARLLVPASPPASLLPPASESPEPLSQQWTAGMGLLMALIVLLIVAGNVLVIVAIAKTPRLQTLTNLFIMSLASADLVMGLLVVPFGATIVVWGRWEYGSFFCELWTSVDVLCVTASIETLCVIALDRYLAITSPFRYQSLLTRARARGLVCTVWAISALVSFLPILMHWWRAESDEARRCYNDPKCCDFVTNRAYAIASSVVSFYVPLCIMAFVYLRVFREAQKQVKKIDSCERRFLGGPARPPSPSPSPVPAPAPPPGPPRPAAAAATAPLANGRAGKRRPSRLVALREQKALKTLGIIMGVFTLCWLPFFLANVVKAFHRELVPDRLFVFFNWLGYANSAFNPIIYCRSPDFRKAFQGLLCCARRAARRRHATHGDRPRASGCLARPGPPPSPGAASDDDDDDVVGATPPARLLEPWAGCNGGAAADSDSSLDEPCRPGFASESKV
row,Structure (SMILES),EC50 [nM]
1,CC(C)(C)NC[C@H](O)c1cccc(C(C)(C)C)n1 [Compound 03-209],< 10
2,Cn1cc(-c2cccc([C@@H](O)CNC(C)(C)C)n2)cn1 [Compound 03-215],100 to 1000
3,CC(C)(C)NC[C@@H](O)c1cccc(-n2ccnc2)n1 [Compound 03-228],10 to 100
4,CC(C)(C)NC[C@@H](O)c1cccc(Cl)n1 [Compound 03-230],10 to 100
5,CC(C)(C)NC[C@H](O)c1cccc(C2CCCC2)n1 [Compound 03-237],10 to 100
6,C#Cc1cccc([C@H](O)CNC(C)(C)C)n1 [Compound 03-238],100 to 1000
7,C=CCc1ncccc1[C@@H](O)CNC(C)(C)C [Compound 03-243],> 1000
8,Cc1ccc([C@@H](O)CNC(C)(C)C)cn1 [Compound 03-248],10 to 100
9,COc1ccc(C[C@@H](C)NC[C@H](O)c2ccc(C)nc2)cc1 [Compound 03-249],< 10
10,COc1ccc(C[C@@H](C)NC[C@H](O)c2cccc(OC(F)(F)F)n2)cc1 [Compound 03-257],10 to 100
11,Cc1ncc(Cl)cc1[C@@H](O)CNC(C)(C)C [Compound 03-267],100 to 1000
12,CC(C)(C)NC[C@H](O)c1cccc(NC2CC(F)C2)n1 (stereo partly drawn) [Compound 03-272],< 10
